# Measurements taken from patent publication US10004730B2, “Small molecules targeting androgen receptor nuclear localization and/or level in prostate cancer” (University of Pittsburgh-Of the Commonwealth System of …, priority 2011, dated 2018).
# Assays:
# PC3 cells [1] = experiment: BrdU incorporation, PC3; type: cell-based; conditions: PC3, up to 50 uM, 48 hrs
# Description: (§1) FIGS. 14A-F. Effect of SID 3712502 at indicated concentrations on BrdU incorporation in cultured AR-positive LNCaP (FIG. 14A), C4-2 (FIG. 14B), 22Rv1 (FIG. 14C), LAPC4 (FIG. 14D) cells, and AR-negative DU145 (FIG. 14E) and PC3 (FIG. 14F) cells. Cells were plated in 12-well plates at 2,500 cell per well in RPMI 1640 complete medium. After 24 hrs, the cells were treated with SID 3712502 at the indicated concentrations for 48 hrs and BrdU incorporation was assayed according to manufacturer's instructions (Invitrogen BrdU staining kit; catalog #: 93-3943). The percentage of BrdU-positive cells was determined and then normalized to generate relative BrdU index. Ctrl=DMSO control.
# LAPC4 cells = experiment: BrdU incorporation, LAPC4; type: cell-based; conditions: LAPC4, 48 hrs
# Description: as §1
# PC3 tumors = experiment: PC3 xenograft tumors in castrated SCID mice; type: in vivo; conditions: i.p. 25 mg/kg every other day
# Description: FIGS. 15A-B. SID 3712502 inhibited the growth of castration resistant 22Rv1 xenograft tumors (FIG. 15A), but not PC3 tumors (FIG. 15B). 22Rv1 or PC3 tumors were established by s.c. injection of 1×10^6 cells into young adult male SCID mice. SCID mice were castrated and randomized when tumor volume reached ˜400 uL. Mice received i.p. delivery of SID 3712502 (25 mg/kg body weight) or vehicle control EPL every other day, beginning 4 days after castration (injection indicated by arrows). Each group consisted of 10 mice for 22Rv1, and 8 mice for PC3 tumors. Tumor volumes were measured using micro-calipers and calculated using the formula (length×width^2)/2. Black and red lines represent data from the animals treated with vehicle (C) and SID 3712502 (SID), respectively. P value was calculated using a two-way ANOVA with the Bonferrroni correction (GraphPad). Error bars=SEM. **p<0.01.
# PC3 cells [2] = experiment: Cell survival, crystal violet staining, PC3; type: cell-based; conditions: 48 hrs
# Description: FIGS. 8A and 8B. Effect of SID 14730725 and SID 3712502 on survival of PC3 (FIG. 8A) and C4-2 cells (FIG. 8B). PC3 or C4-2 cells were plated in 12-well plates at 2,500 cell per well in RPMI 1640 complete medium. After 24 hrs, the cells were treated with SID 14730725 or SID 3712502 at the indicated concentrations for 48 hrs. The wells were washed with PBS thrice and fixed in 0.5% crystal Violet in methanol. C=control; treated with vehicle DMSO.
# AR = experiment: Western blot of AR protein in prostate cancer cells; type: cell-based; conditions: for endogenous AR level (degradation): 48 hrs
# Description: FIGS. 10A and 10B. Down-regulation of the expression of AR and its downstream target PSA by SID 3712502 in C4-2 (FIG. 10A) and LNCaP (FIG. 10B) cells. Cells in RPMI 1640 complete medium were treated with SID 3712502 or vehicle DMSO at the indicated concentrations for 48 hrs. The cells were then harvested in RIPA buffer for Western blot analysis using antibodies for AR, PSA, and GAPDH. GAPDH was included as a loading control.
# (§2) FIGS. 13A-C. Effect of SID 3712502 on the expression of AR and PSA in 22Rv1 (FIG. 13A) cells. […] The cells in RPMI 1640 complete medium were treated with SID 3712502 or vehicle DMSO at the indicated concentrations (uM) for 48 h. The cells were then harvested in RIPA buffer for Western blot analysis using antibodies for AR, PSA, and GAPDH. GAPDH was included as a loading control. FIG. 13B. SID 3712502 inhibits AR transactivation of PSA-luciferase reporter. C4-2 cells were transfected with PSA6.1-Luc, GFP-AR, and pRL-CMV and then treated with indicated doses of SID 3712502 for 24 hours. FIG. 13C. SID 3712502 inhibits transactivation of PSA-luciferase reporter by AR(1-665), which lacks LBD. PC3 cells were transfected with GFP-NAR and PSA6.1 Luc overnight prior to treatment with 10 μM SID 3712502 (SID) or DMSO (C) for 24 hours. For luciferase assays, cells were lysed with passive lysis buffer (Promega) and both Firefly and Renilla luciferase activities were read using a Dual-Luciferase Reporter Assay kit (Promega) on a LmaxII384 luminometer (Molecular Devices). Firefly luciferase values were normalized to Renilla (pRL-CMV) or protein of cell lysates. Plotted values represent averaged normalized Firefly luciferase activities, each performed in triplicate, relative to DMSO control. One-way ANOVA was performed with a Bonferroni's Multiple Comparison posttest *** p<0.0001 (C). Student's t-test was performed; ***p=0.0002 (D).
# GFP-ER = target: T1, GFP-ER (Homo sapiens, UniProt P03372); experiment: GFP-ER nuclear localization in transfected C4-2 cells; type: cell-based; conditions: 24 hours
# T1 construct: expressed in transfected cells; host or cells: C4-2
# T1 sequence (P03372 whole entry): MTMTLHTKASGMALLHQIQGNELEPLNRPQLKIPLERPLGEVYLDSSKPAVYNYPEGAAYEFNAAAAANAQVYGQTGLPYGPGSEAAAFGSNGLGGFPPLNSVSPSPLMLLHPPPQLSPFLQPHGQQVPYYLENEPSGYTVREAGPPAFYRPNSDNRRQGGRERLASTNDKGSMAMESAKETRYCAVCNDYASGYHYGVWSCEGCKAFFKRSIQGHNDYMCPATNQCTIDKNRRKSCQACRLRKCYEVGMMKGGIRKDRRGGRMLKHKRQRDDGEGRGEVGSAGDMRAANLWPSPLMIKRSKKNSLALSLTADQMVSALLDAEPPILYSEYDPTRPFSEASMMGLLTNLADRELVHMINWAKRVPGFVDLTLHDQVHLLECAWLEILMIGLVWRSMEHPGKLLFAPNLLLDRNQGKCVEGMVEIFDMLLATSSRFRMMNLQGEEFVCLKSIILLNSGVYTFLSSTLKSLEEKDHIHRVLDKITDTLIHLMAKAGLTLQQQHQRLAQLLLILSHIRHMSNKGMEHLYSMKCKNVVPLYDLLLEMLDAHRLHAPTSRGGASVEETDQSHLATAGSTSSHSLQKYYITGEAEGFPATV
# Description: FIG. 7. The effect of SID 14730725 and SID 3712502 on nuclear localization of GFP-ER (Top panel) and GFP-GR (Bottom panel) in C4-2 cells. C4-2 cells were transfected with GFP-ER or GFP-GR overnight. The following day the cells were treated with different concentrations (uM) of the small molecules. The cells transfected with GFP-GR were co-treated with 0.5 μM Dexamethasone. Cells were imaged 24 hours after the treatment with the small molecules.
# AR(1-665) = experiment: PSA-luciferase reporter, AR(1-665) lacking LBD, PC3 cells; type: cell-based; conditions: 10 μM, 24 hours
# Description: as §2, with “Student's t-test was performed; ***p=0.0002 (D).” left out
compound,measurement,setting,value
"Cc1cccc(N2CCN(C(=O)CSCc3c(C)noc3C)CC2)c1C [SID 3712502, 2-[(3,5-dimethyl-1,2-oxazol-4-yl)methylsulfanyl]-1-[4-(2,3-dimethylphenyl)piperazin-1-yl]ethanone]",proliferation (BrdU incorporation),PC3 cells [1],no detectable effect
same,proliferation (BrdU incorporation),LAPC4 cells,inhibited the proliferation
same,growth of AR-negative PC3 tumor,PC3 tumors,did not inhibit
same,cytotoxicity,PC3 cells [2],little or no cytotoxicity
same,AR protein levels,"AR; 10-50 uM, 48 h, C4-2 and 22Rv1 cells",inhibited AR protein levels
same,endogenous AR level (degradation),AR; C4-2 cells,can cause degradation of endogenous AR
same,endogenous AR level (degradation),AR; LNCaP cells,can cause degradation of endogenous AR
same,localization of GFP-ER,GFP-ER,no effect
same,transactivation activity of AR(1-665) (PSA-luciferase),AR(1-665),can inhibit the transactivation activity
